Patent publication US9249125B2, “Pyrazole derivatives as p38 MAP inhibitors” (RESPIVERT LIMITED, priority 2012, dated 2016)

Assays:
[1] = target: p38 MAPKα (Homo sapiens (Human), UniProt Q16539); experiment: p38 MAPKα enzyme inhibition (FRET, Z-LYTE); format: biochemical
Protocol: (§1) The enzyme inhibitory activities of compounds disclosed herein are determined by FRET using synthetic peptides labelled with both donor and acceptor fluorophores (Z-LYTE, Invitrogen Ltd., Paisley, UK).
The inhibitory activities of test compounds against the p38 MAPKα isoform (MAPK14: Invitrogen), are evaluated indirectly by determining the level of activation/phosphorylation of the down-stream molecule, MAPKAP-K2. The p38 MAPKα protein (80 ng/mL, 2.5 μL) is mixed with the test compound (2.5 μL of either 4 μg/mL, 0.4 μg/mL, 0.04 μg/mL or 0.004 μg/mL) for 2 hr at RT. […] The mixture is incubated for 1 hr at RT. Development reagent (protease, 5 μL) is added for 1 hr prior to detection in a fluorescence microplate reader (Varioskan® Flash, ThermoFisher Scientific).
(§2) In all cases, the site-specific protease cleaves non-phosphorylated peptide only and eliminates the FRET signal. Phosphorylation levels of each reaction are calculated using the ratio of coumarin emission (donor) over fluorescein emission (acceptor), for which low ratios indicate high phosphorylation and high ratios indicate low phosphorylation levels.

[2] = target: cSrc (Homo sapiens (Human), UniProt P12931); experiment: c-Src enzyme inhibition (FRET, Z-LYTE); format: biochemical
Protocol: as §1
(§3) The relevant enzyme (3000 ng/mL or 2000 ng/mL respectively, 2.5 μL) is incubated with the test compound (either 4 μg/mL, 0.4 μg/mL, 0.04 μg/mL, or 0.004 μg/mL, 2.5 μL each) for 2 hr at RT. The FRET peptides (8 μM, 2.5 μL), and appropriate ATP solutions (2.5 μL, 800 μM for c-Src, and 60 μM ATP for Syk) are then added to the enzymes/compound mixtures and incubated for 1 hr. Development reagent (protease, 5 μL) is added for 1 hr prior to detection in a fluorescence microplate reader (Varioskan® Flash, ThermoFisher Scientific).
as §2

[3] = target: Syk (Homo sapiens (Human), UniProt P43405); experiment: Syk enzyme inhibition (FRET, Z-LYTE); format: biochemical
Protocol: as §1, §3, §2

[4] = target: GSK3α (Homo sapiens (Human), UniProt P49840); experiment: GSK 3α enzyme inhibition (FRET, Z-LYTE); format: biochemical
Protocol: as §1
The inhibitory activities of compounds of the invention against the GSK 3α enzyme isoform (Invitrogen), are evaluated by determining the level of activation/phosphorylation of the target peptide. The GSK3-α protein (500 ng/mL, 2.5 μL) is mixed with the test compound (2.5 μL at either 4 μg/mL, 0.4 μg/mL, 0.04 μg/mL, or 0.004 μg/mL) for 2 hr at RT. The FRET peptide (8 μM, 2.5 μL), which is a phosphorylation target for GSK3α, and ATP (40 μM, 2.5 μL) are then added to the enzyme/compound mixture and the resulting mixture incubated for 1 hr. Development reagent (protease, 5 μL) is added for 1 hr prior to detection in a fluorescence microplate reader (Varioskan® Flash, ThermoFisher Scientific).
as §2

[5] = system: LPS-induced TNFα release in d-U937 cells; experiment: LPS-induced TNFα release in d-U937 cells; format: cell-based; details: Homo sapiens, dU937, relative to 10 μg/mL BIRB796, read-out: LPS Induced Release of Cytokine in d-937 Cells TNFα REC50
Protocol: (§4) U937 cells, a human monocytic cell line, are differentiated into macrophage-type cells by incubation with PMA (100 ng/mL) for 48 to 72 hr. Cells are pre-incubated with final concentrations of test compound for 2 hr and are then stimulated with LPS (0.1 μg/mL) (from E. coli: O111:B4, Sigma) for 4 hr. The supernatant is collected for determination of TNFα and IL-8 concentrations by sandwich ELISA (Duo-set, R&D systems). […] The relative 50% effective concentration (REC50) is determined from the resultant concentration-response curve. The inhibition of IL-8 production is calculated at each concentration of test compound by comparison with vehicle control. […] (b) LPS-Induced TNFα/IL-8 Release in PBMC Cells

[6] = system: LPS-induced IL-8 release in d-U937 cells; experiment: LPS-induced IL-8 release in d-U937 cells; format: cell-based; details: Homo sapiens, dU937, read-out: LPS Induced Release of Cytokine in d-937 Cells IL-8 IC50
Protocol: as §4

[7] = system: Poly I:C-induced ICAM-1 expression in BEAS2B cells; experiment: Poly I:C-induced ICAM-1 expression in BEAS2B cells; format: cell-based; details: Homo sapiens, BEAS-2B, read-out: Poly IC induced ICAM1 in BEAS2B IC50
Protocol: Poly I:C is used in these studies as a simple, RNA virus mimic. Poly I:C-Oligofectamine mixture (1 μg/mL Poly I:C, ±2% Oligofectamine, 25 uL) (Invivogen Ltd., San Diego, Calif., and Invitrogen, Carlsbad, Calif., respectively) is transfected into BEAS2B cells (human bronchial epithelial cells, ATCC). Cells are pre-incubated with final concentrations of test compounds for 2 hr and the level of ICAM1 expression on the cell surface is determined by cell-based ELISA. At a time point 18 hr after poly I:C transfection, cells are fixed with 4% formaldehyde in PBS (100 μL) and then endogenous peroxidase is quenched by the addition of washing buffer (100 μL, 0.05% Tween in PBS: PBS-Tween) containing 0.1% sodium azide and 1% hydrogen peroxide. Cells are washed with wash-buffer (3×200 μL). and after blocking the wells with 5% milk in PBS-Tween (100 μL) for 1 hr, the cells are incubated with anti-human ICAM-1 antibody (50 μL) (Cell Signaling Technology, Danvers, Mass.) in 1% BSA PBS overnight at 4° C.
The cells are washed with PBS-Tween (3×200 μL) and incubated with the secondary antibody (100 μL) (HRP-conjugated anti-rabbit IgG, Dako Ltd., Glostrup, Denmark). The cells are then incubated with of substrate (50 μL) for 2-20 min, followed by the addition of stop solution (50 μL, 1N H2SO4). The ICAM-1 signal is detected by reading and reading the absorbance at 450 nm against a reference wavelength of 655 nm using a spectrophotometer. The cells are then washed with PBS-Tween (3×200 μL) and total cell numbers in each well are determined by reading absorbance at 595 nm after Crystal Violet staining (50 μL of a 2% solution in PBS) and elution by 1% SDS solution (100 μL) in distilled water. The measured OD 450-655 readings are corrected for cell number by dividing with the OD595 reading in each well.

[8] = system: d-U937 cells; experiment: Cell viability: MTT assay; format: cell-based, human; details: 1 μg/mL
Protocol: Differentiated U937 cells are pre-incubated with each test compound (final concentration 1 μg/mL or 10 μg/mL in 200 μL media indicated below) under two protocols: the first for 4 hr in 5% FCS RPMI1640 media and the second in 10% FCS RPMI1640 media for 24 h. The supernatant is replaced with new media (200 μL) and MTT stock solution (10 μL, 5 mg/mL) is added to each well. After incubation for 1 hr the media are removed, DMSO (200 μL) is added to each well and the plates are shaken lightly for 1 hr prior to reading the absorbance at 550 nm. The percentage loss of cell viability is calculated for each well relative to vehicle (0.5% DMSO) treatment. Consequently an apparent increase in cell viability for drug treatment relative to vehicle is tabulated as a negative percentage.

Sequence of GSK3α (P49840 whole entry): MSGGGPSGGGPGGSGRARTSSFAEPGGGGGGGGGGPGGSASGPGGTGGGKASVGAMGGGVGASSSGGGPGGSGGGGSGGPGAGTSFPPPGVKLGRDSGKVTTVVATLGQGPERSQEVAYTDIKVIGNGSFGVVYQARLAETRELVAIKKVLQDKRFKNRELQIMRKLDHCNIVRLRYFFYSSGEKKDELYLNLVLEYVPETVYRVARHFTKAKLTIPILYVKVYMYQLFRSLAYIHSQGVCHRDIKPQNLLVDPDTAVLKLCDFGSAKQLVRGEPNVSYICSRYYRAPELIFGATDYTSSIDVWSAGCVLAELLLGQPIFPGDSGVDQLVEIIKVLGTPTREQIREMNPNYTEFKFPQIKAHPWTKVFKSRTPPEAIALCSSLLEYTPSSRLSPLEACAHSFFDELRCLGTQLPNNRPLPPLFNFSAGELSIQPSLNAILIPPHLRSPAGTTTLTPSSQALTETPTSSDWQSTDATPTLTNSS
Sequence of p38 MAPKα (Q16539 whole entry): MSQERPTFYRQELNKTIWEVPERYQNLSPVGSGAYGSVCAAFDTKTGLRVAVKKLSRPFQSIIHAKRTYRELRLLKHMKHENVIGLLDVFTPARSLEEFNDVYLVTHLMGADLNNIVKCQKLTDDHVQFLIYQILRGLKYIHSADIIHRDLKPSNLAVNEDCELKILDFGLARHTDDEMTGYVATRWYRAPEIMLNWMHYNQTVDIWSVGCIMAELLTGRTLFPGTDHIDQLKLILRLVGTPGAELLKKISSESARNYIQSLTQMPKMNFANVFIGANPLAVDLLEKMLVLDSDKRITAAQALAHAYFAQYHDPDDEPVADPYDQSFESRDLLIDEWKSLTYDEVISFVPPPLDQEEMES
Sequence of cSrc (P12931 whole entry, looked up): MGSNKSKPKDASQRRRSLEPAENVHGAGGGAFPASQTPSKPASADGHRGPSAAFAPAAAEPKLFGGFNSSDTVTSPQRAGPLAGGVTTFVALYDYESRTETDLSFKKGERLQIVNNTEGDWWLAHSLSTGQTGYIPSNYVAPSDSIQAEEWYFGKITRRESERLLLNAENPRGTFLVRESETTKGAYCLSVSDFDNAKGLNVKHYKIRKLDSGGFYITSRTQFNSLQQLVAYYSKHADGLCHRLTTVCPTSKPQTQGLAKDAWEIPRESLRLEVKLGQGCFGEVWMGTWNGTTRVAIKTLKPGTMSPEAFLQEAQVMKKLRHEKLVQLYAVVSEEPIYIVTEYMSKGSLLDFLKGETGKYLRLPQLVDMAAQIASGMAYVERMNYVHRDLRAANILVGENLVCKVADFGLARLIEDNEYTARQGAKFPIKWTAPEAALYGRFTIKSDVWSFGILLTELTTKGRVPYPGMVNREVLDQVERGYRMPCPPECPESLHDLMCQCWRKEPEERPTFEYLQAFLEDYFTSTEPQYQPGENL

| IC50 [1] [nM] | IC50 [2] [nM] | IC50 [3] [nM] | IC50 [4] [nM] | EC50 [5] [nM] | IC50 [6] [nM] | SMILES | IC50 [7] [nM] | MTT Assay Cell viability at time point in d-U937 cells 4 h [8] | MTT Assay Cell viability at time point in d-U937 cells 24 h [8] |
| --- | --- | --- | --- | --- | --- | --- | --- | --- | --- |
| 18 | < 1 | 2 | 589 | 1.4 | 1.2 | Cc1cc(Nc2nccc(Oc3ccc(NC(=O)Nc4cc(C(C)(C)C)nn4-c4cccc(CN5CCCC5=O)c4)c4ccccc34)n2)cc2cn[nH]c12 [Example 10, 1-(3-(tert-Butyl)-1-(3-((2-oxopyrrolidin-1-yl)methyl)phenyl)-1H-pyrazol-5-yl)-3-(4-((2-((7-methyl-1H-indazol-5-yl)amino)pyrimidin-4-yl)oxy)naphthalen-1-yl)urea] | 3.9 | −ve (−ve and +ve indicate that the value is below and above respectively, the no significant effect threshold, defined as 30% inhibition at 1 μg/mL at the time point indicated.) | −ve (−ve and +ve indicate that the value is below and above respectively, the no significant effect threshold, defined as 30% inhibition at 1 μg/mL at the time point indicated.) |
| 3 | 2 | 7 | 1090 | 7.5 | 18.4 | CC(C)(C)c1cc(NC(=O)Nc2ccc(Oc3cc(Nc4ccc5[nH]ncc5c4)ncn3)c3ccccc23)n(-c2ccc(=O)n(CCO)c2)n1 [Example 14, 1-(4-((6-((1H-Indazol-5-yl)amino)pyrimidin-4-yl)oxy)naphthalen-1-yl)-3-(3-(tert-butyl)-1-(1-(2-hydroxyethyl)-6-oxo-1,6-dihydropyridin-3-yl)-1H-pyrazol-5-yl)urea] | 52.4 | −ve (−ve and +ve indicate that the value is below and above respectively, the no significant effect threshold, defined as 30% inhibition at 1 μg/mL at the time point indicated.) | −ve (−ve and +ve indicate that the value is below and above respectively, the no significant effect threshold, defined as 30% inhibition at 1 μg/mL at the time point indicated.) |
| 101 | 22 | 65 | > 16100 | 2 | 2.6 | Cc1ccc(-n2nc(C(C)(C)C)cc2NC(=O)Nc2ccc(Oc3ccnc(Nc4cccc5[nH]ccc45)n3)c3ccccc23)cc1 [Example 16] | 8.9 | −ve (−ve and +ve indicate that the value is below and above respectively, the no significant effect threshold, defined as 30% inhibition at 1 μg/mL at the time point indicated.) | −ve (−ve and +ve indicate that the value is below and above respectively, the no significant effect threshold, defined as 30% inhibition at 1 μg/mL at the time point indicated.) |

Second part, the compound before the results:

| SMILES | IC50 [1] [nM] | IC50 [2] [nM] | IC50 [3] [nM] | IC50 [4] [nM] | EC50 [5] [nM] | IC50 [6] [nM] | IC50 [7] [nM] | MTT Assay Cell viability at time point in d-U937 cells 4 h [8] | MTT Assay Cell viability at time point in d-U937 cells 24 h [8] |
| --- | --- | --- | --- | --- | --- | --- | --- | --- | --- |
| CC(C)(C)c1cc(NC(=O)Nc2ccc(Oc3ccnc(Nc4ccc5c(c4)OCCO5)n3)c3ccccc23)n(-c2ccc(OCCN3CCOCC3)cc2)n1 [Example 11, 1-(3-(tert-Butyl)-1-(4-(2-morpholinoethoxy)phenyl)-1H-pyrazol-5-yl)-3-(4-((2-((2,3-dihydrobenzo[b][1,4]dioxin-6-yl)amino)pyrimidin-4-yl)oxy)naphthalen-1-yl)urea] | 39 | 6 | 15 | 848 | 8.5 | 25.2 | 7.9 | −ve (−ve and +ve indicate that the value is below and above respectively, the no significant effect threshold, defined as 30% inhibition at 1 μg/mL at the time point indicated.) | −ve (−ve and +ve indicate that the value is below and above respectively, the no significant effect threshold, defined as 30% inhibition at 1 μg/mL at the time point indicated.) |
| Cc1ccc(-n2nc(C(C)(C)C)cc2NC(=O)Nc2ccc(Oc3ccnc(Nc4ccc5c(c4)CC(=O)N5)n3)c3ccccc23)cc1 [Example 19, 1-(3-(tert-butyl)-1-(p-tolyl)-1H-pyrazol-5-yl)-3-(4-((2-((2-oxoindolin-5-yl)amino)pyrimidin-4-yl)oxy)naphthalen-1-yl)urea] | 12 | 7 | 32 | 1010 | 1.8 | 1.9 | 2.4 | −ve (−ve and +ve indicate that the value is below and above respectively, the no significant effect threshold, defined as 30% inhibition at 1 μg/mL at the time point indicated.) | −ve (−ve and +ve indicate that the value is below and above respectively, the no significant effect threshold, defined as 30% inhibition at 1 μg/mL at the time point indicated.) |
